Test system: leaves of Tagetes patula plants of genotypes TAG 80 and TAG 81
Assay: Determination of phosphinothricin (PPT) toxicity on leaf explants
Assay type: cell-based
Settings: leaf disks 10-60 mm^2 on MS medium with 2% sucrose, 3 mg/l BAP, 1 mg/l IAA; 2 weeks; both genotypes TAG 80 and TAG 81
Description: Leaves of Tagetes patula plants of genotypes TAG 80 and TAG 81 (Genbank, IPK Gatersleben) which were established in vitro were cut transversely to the central vein into disks 10-60 mm^2 in size and placed on MS medium supplemented with 2% sucrose, 3 mg/l benzylaminopurine (BAP), 1 mg/l indoleacetic acid (IAA) and different PPT concentrations. Incubation was for 2 weeks in a 16/8 hour light/dark photoperiod at approx. 50 μE/m^2s and at from 21 to 24° C. Then, the number of damaged explants was recorded with reference to the total number of tested explants (FIG. 2). In both Tagetes patula genotypes tested, concentrations starting at 1 mg/l PPT led to the complete destruction of all explants, which is why this concentration was used for the selection after cocultivation.

How did the “PPT concentration leading to the complete destruction of all explants” value turn out when `CP(=O)(O)CC[C@H](N)C(=O)O` [PPT, phosphinothricin] was run?
Its value is at least 1 mg/L.

Source: US20030033638A1, “Production of transgenic plants of the tagetes species” (priority 1999, published 2003)
